Experimental data published in publication PMC11470957, “Principles of paralog-specific targeted protein degradation engaging the C-degron E3 KLHDC2” (Nature Communications, 2024).
“Also recorded” adds a separate entry of the source.

System: KLHDC2, KLHDC3, KLHDC10, KLHDC1 E3 ligases

Structure (SMILES): O=C(O)CNC(=O)Cc1csc(-c2ccc3ccccc3c2)n1 [SJ46411]
- selectivity towards KLHDC2 over other KLHDC family members (inhibition of SELK ubiquitylation): at least two orders-of-magnitude
- inhibition of substrate ubiquitylation by Kelch family E3 ligases other than KLHDC2 (ligand alone, Fig S5b, c): does not show substantial effects; also recorded: largely inactive
